Test system: COX
Assay: COX activity inhibition at single concentration
Assay type: biochemical, human
Conditions: at 100 μM

O=C(O)c1cccc(Nc2ccc([N+](=O)[O-])c3ccccc23)c1 [Compound 2, 3-((4-nitronaphthalen-1-yl)amino)benzoic acid]
inhibition of COX activity: no significant inhibition

Source: paper PMC3348334 (Bioorganic & medicinal chemistry letters, 2012)
